Data published in US20260000079A1, “COMPOSITIONS AND METHODS FOR MODULATING IMMUNITY IN PLANTS” (BOYCE THOMPSON INSTITUTE FOR PLANT RESEARCH, INC., priority 2019, published 2026).

Columns and labels:
[1] = tested on: MAPK, jasmonic acid and salicylic acid signaling pathways; conditions: Manosalva, et al. (2015); cited from earlier work
[2] = tested on: Pseudomonas syringae DC3000; assay: Bacterial growth assay in ascr #18-pretreated Arabidopsis; type: in vivo, Pseudomonas syringae pv. tomato; conditions: 1 μM, 24 hours pretreatment; acx1acx5 and wildtype Arabidopsis
Method: FIG. 4A provides a schematic of the experimental designs for assessing activation of defense pathways and resistance to nematodes and bacteria. […] Bacterial growth was assayed 3 days post inoculation. Data are averages±s.d. (n=17). […] Arabidopsis seedlings were treated with buffer or the indicated concentrations of ascr #18 for 48 hours before inoculation with approximately 300 freshly hatched M. incognita J2 larvae. The numbers of root galls of infected plants were counted 6 weeks post inoculation. Data are averages±s.d. (n≥15). […] Larvae touching root tips (FIG. 4D) or the whole area of roots (FIG. 4E) were counted at 6 hours post seedling transfer. […] Transcript levels were determined by qRT-PCR and plotted as relative fold-change compared to mock treated plants. […]
Given the rapid conversion of ascr #18 into shorter-chained ascarosides via pβo, the inventors investigated whether metabolism of the pathogen-produced compound ascr #18 produced by plant pathogenic nematodes is required for the activation of plant defense responses and resistance to other non-nematode pathogens. […] To test whether ascaroside metabolism plays a role in ascr #18-mediated enhanced resistance to a bacterial pathogen, the effect of ascr #18 treatment on infection with Pseudomonas syringae DC3000 was evaluated in the acx1acx5 mutant and wildtype Arabidopsis.

M. incognita J2 larvae = assay: J2 larvae touching roots of pretreated seedlings in PF-127 gel; type: in vivo, Meloidogyne incognita; conditions: 48 hours pretreatment
Method: FIG. 4A provides a schematic of the experimental designs for assessing activation of defense pathways and resistance to nematodes and bacteria. […] Bacterial growth was assayed 3 days post inoculation. Data are averages±s.d. (n=17). […] Arabidopsis seedlings were treated with buffer or the indicated concentrations of ascr #18 for 48 hours before inoculation with approximately 300 freshly hatched M. incognita J2 larvae. The numbers of root galls of infected plants were counted 6 weeks post inoculation. Data are averages±s.d. (n≥15). […] Arabidopsis seedlings were treated with the indicated concentrations of ascr #18 for 48 hours before transfer into 12-well plates containing Pluronic® F-127 gel with ˜200 freshly hatched M. incognita J2 larvae. Larvae touching root tips (FIG. 4D) or the whole area of roots (FIG. 4E) were counted at 6 hours post seedling transfer. Data are average±s.d. (n=12). […] Transcript levels were determined by qRT-PCR and plotted as relative fold-change compared to mock treated plants. Data are averages±s.d (n≥6). *P≤0.05; **P≤0.005; ***P≤0.0005; two-tailed t-test.
FIG. 6A provides a graph of the number of nematodes touching the root tips of Arabidopsis wildtype and acx1acx5 treated with 50 nM ascr #18 or ascr #9 for 48 hours before transfer into 12-well plates containing Pluronic® F-127 gel with ˜200 freshly hatched M. incognita J2 larvae. Larvae touching the terminal part of roots were counted at 6 hours after seedling transfer. Data are average±s.d. (n=12). FIG. 6B provides a schematic of a Petri dish as shown in the plate layout. […] Larvae in the indicated scoring areas were counted after 4 hours. […] FIG. 6D provides the attraction index for different concentrations of ascr #18, ascr #9, or ascr #18/ascr #9 mixtures measured using the layout shown in FIG. 6C. […]
In a second experiment, wildtype and acx1acx5 were treated with ascr #18 for 48 hours prior to moving seedlings to a PF-127 gel containing approximately 200 M. incognita second-stage larvae (J2) (FIG. 4A, 4D, 4E). J2 larvae touching the roots were counted at 6 hours post seedling transfer.

[3] = tested on: bacteria, viruses, fungi, oomycetes, and nematodes; conditions: Manosalva, et al. (2015); cited from earlier work
[4] = tested on: entomopathogenic nematode species; conditions: Kaplan, et al. (2012); cited from earlier work
tomato leaves = assay: LC-MS analysis of tomato leaves infiltrated with ascr #18; type: in vivo, Solanum lycopersicum; conditions: 4-week old tomato plants infiltrated with 1 μM ascr #18
From the text: FIG. 2A provides LC-MS analysis of tomato roots treated with ascr #18 or ^13C2-labeled ascr #18. Plants treated with ^13C2-labeled ascr #18 show peaks at 333.21932 and 249.12542, representing [M-H]^− of ^13C2-ascr #18 and ^13C2-ascr #9, but not at 331.21261 and 247.11871, which correspond to [M-H]^− of ascr #18 and ascr #9, and vice versa. Structures of ascr #18 and ascr #9 indicating the positions of the ^13C2-label are shown above ion chromatograms. Peaks marked with an asterisk represent unrelated peaks. FIGS. 2B and 2C provide graphs showing the relative abundances of ascr #18 and ascr #9, respectively, as measured by LC-MS. Four-week old Arabidopsis leaves were infiltrated with 1 μM ascr #18, and leaf tissue were harvested for LC-MS analyses over a period of 96 hours post infiltration of ascr #18. Data are averages±SEM (n=3). FIG. 2D provides LC-MS analyses of tomato leaves infiltrated with 1 μM ascr #18. Tissues were collected over a 12 hour period. Abundances of ascr #18 and ascr #9 are shown as the peak area, as measured by LC-MS. […] To test whether microbes are required for the observed metabolic transformations, leaves of 4-week old Arabidopsis plants were directly infiltrated with ascr #18 and leaf tissue was subsequently harvested for analysis by LC-MS as above. […]

SMILES	activation of defense signaling pathways in monocots and dicots [1]	protection against P. syringae infection (bacterial growth 3 days post inoculation) [2]	effect on M. incognita behavior (J2 larvae touching roots) (M. incognita J2 larvae; wildtype or mutant, 1 μM)	numbers of J2 larvae touching the root tips or whole root area (M. incognita J2 larvae; wildtype, 50 nM, counted 6 hours post transfer)	resistance of plants to pathogens [3]	dispersal behavior [4]	formation of ascr #9 in leaves (tomato leaves)	effect on infection (J2 larvae touching root tips) (M. incognita J2 larvae; wildtype or acx1acx5, 50 nM)
CC1O[C@@H](O[C@@H](C)CCCCCCCCC(=O)O)C(O)C[C@H]1O (stereo in doubt) [ascr #18, (10R)-(3′R,5′R-dihydroxy-6′S-methyl-(2H)-tetrahydropyran-2-yloxy)-undecanoic acid]	activation of conserved defense signaling pathways	comparable levels of protection	did not significantly affect	significantly reduced	enhance resistance of monocot and dicot plants to a wide range of pathogens	–	–	–
C[C@H](CCC(=O)O)O[C@@H]1O[C@@H](C)[C@H](O)C[C@H]1O [ascr #9]	–	–	–	–	–	mediate dispersal behavior	observed	did not significantly reduce infection
